# Laboratory results: ChEMBL document CHEMBL5608178, “Design and synthesis of 7-membered lactam fused hydroxypyridinones as potent metal binding pharmacophores (MBPs) for inhibiting influenza virus PAN endonuclease” (Eur J Med Chem, 2024)
# Key:
# [1] = biological target: Polymerase acidic protein (Influenza A virus (A/Puerto Rico/8/1934(H1N1))) (UniProt P03433); test: Inhibition of Influenza A virus N-terminal Polymerase acidic protein endonuclease activity in HEK293T cells transfected with IAV RNA polymerase complex and firefly/renilla luciferase reporter at 10 uM by […] Dual-Glo luciferase assay relative to control; format: cell-based
# Influenza A virus [2] = test: Antiviral activity against Influenza A virus A/WSN/33, H1N1 infected in MDCK cells assessed as decrease in viral replication incubated for 72 hrs; format: functional, organism-based; settings: A/WSN/33, H1N1, MDCK
# [3] = biological target: Polymerase acidic protein (Influenza A virus (A/Puerto Rico/8/1934(H1N1)), UniProt P03433); test: Inhibition of Influenza A virus N-terminal Polymerase acidic protein endonuclease activity in HEK293T cells transfected with IAV RNA polymerase complex and firefly/renilla luciferase reporter by […] Dual-Glo luciferase assay; format: cell-based
# [4] = Cytotoxicity against MDCK cells assessed as decrease in survival rate; format: toxicity, cell-based, Canis lupus familiaris; settings: dog
# Influenza A virus [5] = test: Antiviral activity against Influenza A virus A/WSN/33, H1N1 infected in MDCK cells assessed as suppression of viral titer at 3 uM incubated for 72 hrs relative to control; format: functional
Structure (SMILES),inhibition [1],EC50 (Influenza A virus [2]),IC50 [3],CC50 [4],Activity (Influenza A virus [5])
O=C1c2c(O)c(=O)ccn2N([C@@H]2c3ccccc3SCc3c2ccc(F)c3F)[C@@H]2COCCN12 [BALOXAVIR],99%,1 nM,1 nM,28800 nM,–
O=C1c2c(O)c(=O)ccn2N(C2c3ccccc3C=Cc3ccccc32)C[C@H]2CCCN12,91.9%,292 nM,437 nM,62900 nM,82.2%
C[C@H]1CN(C2c3ccccc3CCc3ccccc32)n2ccc(=O)c(O)c2C(=O)N1,37.6%,–,–,–,–
O=C1N[C@H](Cc2ccccc2)CN(C2c3ccccc3CCc3ccccc32)n2ccc(=O)c(O)c21,49.5%,–,–,–,–
O=C1c2c(O)c(=O)ccn2N(C2c3ccccc3CCc3ccccc32)C[C@@H]2CCCN12,68.2%,–,–,–,–
O=C1c2c(O)c(=O)ccn2N(C(c2ccc(F)cc2)c2ccc(F)cc2)C[C@H]2CCCN12,50.1%,–,–,–,–
O=C1c2c(O)c(=O)ccn2N([C@H]2c3ccccc3SCc3c2ccc(F)c3F)C[C@H]2CCCN12,–,2880 nM,231 nM,98500 nM,–
O=C1NC2(CCCC2)CN(C2c3ccccc3CCc3ccccc32)n2ccc(=O)c(O)c21,9.2%,–,–,–,–
O=C1c2c(O)c(=O)ccn2N(C2c3ccccc3CCc3ccccc32)C[C@H]2CCCN12,81.1%,724 nM,2870 nM,34300 nM,–
C[C@@H]1CN(C2c3ccccc3CCc3ccccc32)n2ccc(=O)c(O)c2C(=O)N1,75.3%,–,–,–,–
CC(C)C[C@@H]1CN(C2c3ccccc3CCc3ccccc32)n2ccc(=O)c(O)c2C(=O)N1,56.4%,–,–,–,–
O=C1c2c(O)c(=O)ccn2N(C2c3ccccc3CCc3ccccc32)C[C@H]2CCCCN12,66.9%,–,–,–,–
CSCC[C@@H]1CN(C2c3ccccc3CCc3ccccc32)n2ccc(=O)c(O)c2C(=O)N1,64.2%,–,–,–,–
O=C1c2c(O)c(=O)ccn2N(C(c2ccccc2)c2ccccc2)C[C@H]2CCCN12,48.2%,–,–,–,–
O=C1c2c(O)c(=O)ccn2N(C2c3ccccc3SCc3c2ccc(F)c3F)C[C@H]2CCCN12 (stereo not given in full),99.6%,421 nM,82 nM,29600 nM,99.9%
CC(C)[C@H]1CN(C2c3ccccc3CCc3ccccc32)n2ccc(=O)c(O)c2C(=O)N1,31%,–,–,–,–
CC(C)C[C@H]1CN(C2c3ccccc3CCc3ccccc32)n2ccc(=O)c(O)c2C(=O)N1,22.4%,–,–,–,–
O=C1c2c(O)c(=O)ccn2N(C2c3ccccc3CCc3ccccc32)C[C@@H]2CCCCN12,36.5%,–,–,–,–
O=C1c2c(O)c(=O)ccn2N([C@@H]2c3ccccc3SCc3c2ccc(F)c3F)C[C@H]2CCCN12,–,134 nM,45 nM,15400 nM,–
CSCC[C@H]1CN(C2c3ccccc3CCc3ccccc32)n2ccc(=O)c(O)c2C(=O)N1,30.5%,–,–,–,–
O=C1N[C@H](c2ccccc2)CN(C2c3ccccc3CCc3ccccc32)n2ccc(=O)c(O)c21,31.6%,–,–,–,–
O=C1N[C@@H](Cc2ccccc2)CN(C2c3ccccc3CCc3ccccc32)n2ccc(=O)c(O)c21,49%,–,–,–,–
